Experimental data taken from article PMC10556057, “The proton channel OTOP1 is a sensor for the taste of ammonium chloride” (Nature Communications, 2023).
pEC50: −log10 of the molar value.

Molecular target: T1, mOTOP1 (Mus musculus, UniProt Q80VM9)
T1 construct: gene Otop1; full length in HEK-293 / PAC-KO cells; homodimer
T1 sequence (Q80VM9 1-600): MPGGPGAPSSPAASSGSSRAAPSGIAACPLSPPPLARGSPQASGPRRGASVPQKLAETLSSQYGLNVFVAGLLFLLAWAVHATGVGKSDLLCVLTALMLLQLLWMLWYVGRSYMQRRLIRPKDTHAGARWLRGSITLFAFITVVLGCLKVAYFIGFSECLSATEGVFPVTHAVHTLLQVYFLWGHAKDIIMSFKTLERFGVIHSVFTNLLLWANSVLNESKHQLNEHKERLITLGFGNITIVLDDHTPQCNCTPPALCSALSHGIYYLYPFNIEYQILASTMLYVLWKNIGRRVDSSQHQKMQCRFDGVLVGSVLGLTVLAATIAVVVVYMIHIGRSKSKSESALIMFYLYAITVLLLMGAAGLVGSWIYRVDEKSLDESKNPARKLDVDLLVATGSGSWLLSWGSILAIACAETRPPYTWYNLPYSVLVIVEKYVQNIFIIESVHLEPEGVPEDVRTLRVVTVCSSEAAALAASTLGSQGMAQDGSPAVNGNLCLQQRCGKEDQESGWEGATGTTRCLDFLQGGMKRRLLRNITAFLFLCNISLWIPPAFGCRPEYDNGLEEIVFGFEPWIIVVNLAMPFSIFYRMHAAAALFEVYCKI
Test: whole-cell patch clamp, inward current in HEK-293
Type: cell-based

pEC50: 1.73
SMILES: N [NH4Cl]
